In patent US6458760B1, “Method for treating tissue damaged from ischemia” (Henry Ford Health System, priority 1998, dated 2002):
Residues, ends and D or L forms follow the SMILES beside them. *: point of attachment. Cbz = O=C(OCc1ccccc1)*; CHN2 = [N-]=[N+]=C*; Bn = c1ccc(C*)cc1

Target: Cathepsin L (Homo sapiens, UniProt P07711)
Assay: Cathepsin L inactivation rate, fluorimetric progress curves
Type: biochemical
Settings: second order inactivation rate constant corrected for substrate; substrate Z-Phe-Arg-AMC; pH 5.4, 30° C.
Method: (“Tian, et al.”) the contents of which are incorporated by reference. More specifically, the value of kobs is given by the slope of a plot of ln [P]∞−[p]t versus t (time). The apparent second-order rate contact for inactivation, k2app was calculated as kobs/[I]. The inactivation-rates (kobs) in the presence of substrate and for different inhibitor concentrations for calpain, cathepsin B and cathepsin L are determined according to the method of Tian, et al. However, k2app is corrected for the presence of substrate (s) to give the second order rate constant k^12app, calculated as k^12app=k2app (1+[s]/Km).
Cathepsins B and L were preactivated with […] DTT in 50 mM sodium acetate buffer, pH 5.4, 1 mM EDTA for 2 h at 4° C. and assayed in the same buffer with 0.01% Brij [poly(oxyethylene) glycol dodecyl ether]. 5 μM (final concentration) CBZ-Phe-Arg-AMC was used as substrate for both for cathepsins B and L. The inhibitors (0.1-1 μM) and substrate were added to the reaction mixture to incubate for 5 min in a cuvette thermostated at 30° C. Then, approximately 0.4 nM and 0.1 nM final concentration of cathepsin B and cathepsin L, respectively, were used to initiate the reaction. […] The progress curves were analyzed over at least 3 half lives to calculate the rate constants of inactivation in accordance with the procedure described by Crawford, C. Mason, R. W., Wilkström, P., and Shaw, E. in an article entitled “The design of peptidyldiazomethane inhibitors to distinguish between the cysteine proteinases calpain II, cathepsin L and cathepsin B.”, Biochem. J. 1988, 253, 751-758, the contents of which are incorporated by reference. The rates of inactivation of various substrates are tabulated hereinbelow.

Cathepsin L, sequence (P07711 114-333, species assumed): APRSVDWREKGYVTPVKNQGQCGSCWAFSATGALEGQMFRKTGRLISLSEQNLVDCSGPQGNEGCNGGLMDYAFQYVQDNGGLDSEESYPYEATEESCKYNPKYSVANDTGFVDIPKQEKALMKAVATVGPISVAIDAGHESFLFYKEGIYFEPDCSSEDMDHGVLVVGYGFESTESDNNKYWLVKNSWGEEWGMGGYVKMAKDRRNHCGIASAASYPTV

## [N-]=[N+]=CC(=O)C(COCc1ccccc1)NC(=O)C(Cc1ccccc1)NC(=O)OCc1ccccc1 (stereo not drawn) [CP-1, benzyloxycarbonyl-Phe-Ser(OBz)-CHN2] (Cbz-Phe-Ser(Bn)-CHN2; configuration not given here)
  Cathepsin L k′2app: 1,000,000 M^−1S^−1
